In PubChem BioAssay (NCI):
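Five compound concentrations were applied to cells in 96-well plates for 48 hours; endpoints were derived by simple linear interpolation of the resulting dose-response curve. GI50 is the concentration that inhibits growth by half. TGI marks complete inhibition of growth.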

Columns and labels:
Experiment in all cases: DTP human tumour cell line panel, 48 h
786-0 renal = system: 786-0 renal
CAKI-1 renal = system: CAKI-1 renal
DU-145 prostate = system: DU-145 prostate
EKVX NSCLC = system: EKVX NSCLC
RPMI-8226 leukemia = system: RPMI-8226 leukemia
SK-MEL-2 melanoma = system: SK-MEL-2 melanoma
SK-MEL-28 melanoma = system: SK-MEL-28 melanoma
SNB-19 CNS = system: SNB-19 CNS

SMILES	TGI (786-0 renal) [µM]	TGI (CAKI-1 renal) [µM]	TGI (DU-145 prostate) [µM]	TGI (EKVX NSCLC) [µM]	TGI (RPMI-8226 leukemia) [µM]	TGI (SK-MEL-2 melanoma) [µM]	TGI (SK-MEL-28 melanoma) [µM]	TGI (SNB-19 CNS) [µM]	GI50 (786-0 renal) [µM]	GI50 (CAKI-1 renal) [µM]	GI50 (EKVX NSCLC) [µM]	GI50 (RPMI-8226 leukemia) [µM]	GI50 (SK-MEL-2 melanoma) [µM]	GI50 (SK-MEL-28 melanoma) [µM]	GI50 (SNB-19 CNS) [µM]	GI50 (DU-145 prostate) [µM]
COc1cc2ccc(/C=C\[N+](=O)[O-])cc2cc1OC	3.09	20	4.39	15.5	5.44	9.43	7.51	27.7								
O=C([CH-]C(=O)c1ccccc1)c1ccccc1.O=C([CH-]C(=O)c1ccccc1)c1ccccc1.[La+3].[OH-].[OH3+]	65.1	56.8		51.9	49.9	37.8	57.2	66.3	16	17.4	14.3	11.1	15.1	17.1	19.2	
O=C(O)C(/C=C/c1ccccc1)c1ccccc1 (configuration not stated)	> 100		> 100	> 100	> 100	> 100	> 100	> 100								
CC(C)N(Cc1ccccc1)c1c(S)ssc1=S	> 100	> 100	28.7	8.49	6.27	31.1	17.8	> 100	3.65	0.661	2.2	0.772	3.53	2.09	3.76	3.15
COc1ccc(-c2cn(-c3cc(OC)c(OC)c(OC)c3)c(SCc3ccccc3)n2)cc1OC	> 100	> 100	> 100	> 100	> 100	> 100	> 100	> 100	> 100	> 100	> 100	> 100	> 100	> 100	> 100	> 100
CCC1C2Cc3ccc(O)cc3C1(CC)CCN2C (configuration not stated)	> 100	> 100	> 100	> 100	> 100	> 100	> 100	> 100								
COc1cc(CSc2nc3ccc(C)cc3c(=O)n2-c2ccccc2)cc(OC)c1OC	> 100	> 100	> 100		> 100	> 100	> 100	> 100	6.56	2.79		3.28	3.52	2.8	13.8	3.59
O=C(CCCCCCCCC(=O)N/N=C\c1ccccc1O)N/N=C\c1ccccc1O	1.99	14.9	15.5	> 69.6	35.8	> 36.8	> 100	> 59.4	0.334	0.318	1.53	1.03	0.469	1.08	0.763	0.579
Nc1c(C(=O)c2cccc(-c3ccncc3)c2)cnn1-c1ccc(F)cc1F	> 25	> 25	> 25		> 25	> 19.7	> 25	> 25	> 25	8.1		6.16	6.43	16.7	> 19.3	> 22.1
COc1ccc(-c2c[nH]c(C(=O)O)c2-c2cc(OC)c(OC)c(OC)c2)cc1	> 100	> 100	> 100	> 100	> 100	> 100	> 100	> 100	6.63	3.66	5.86	4.24	5.45	> 100	7.24	4.27
O=C1Nc2ccccc2/C1=C/C(=O)c1coc2c1C(=O)c1ccccc1C2=O	> 100	> 100	> 100		> 100	> 100	> 100	> 100	> 100	34.2		> 100	> 100	> 100	> 100	> 100
C#Cc1c(F)ccc2cc(O)cc(-c3ncc4c(N5CC6CCC(C5)N6)nc(OC[C@@]56CCCN5C[C@H](F)C6)nc4c3F)c12	31	35.6	28.6	> 54.6	29.9	32.9	29.1	26.3	15	17.5	21.7	5.1	16.9	15.6	13.4	14.9
COc1ccc2c(c1)c(=O)oc1cc(OC/C(C)=N\O)ccc12	> 100	> 100	> 100	> 100	> 100	> 100	> 100	> 100	> 100	> 100	3.38	> 100	> 100	> 100	48.3	> 100
Cc1cc2c(cc1C)N(C(=O)CCl)CC(=O)N2	15.5	3.52	10.2		7.15	14.4	14.8	26.2	3.9	1.84		2.35	4.2	3.89	12.6	3.49
CC(C)(C)c1ccc(Oc2nccc(-c3c(-c4ccc(F)cc4)ncn3C3CCNCC3)n2)cc1	8.12	7.64	7.06	7.36	7.97	9.1	8.06	7.42	4.22	3.96	3.6	3.56	5.21	4.29	3.73	3.71
O=C(O)C(SC(=S)c1ccc(C(=S)SC(C(=O)O)c2ccccc2)cc1)c1ccccc1 (configuration not stated)	> 100				> 100	> 100	> 100	> 100								
COc1cc([N+](=O)[O-])c(OC)cc1-c1nc2sc(Cl)cn2c1/C(N)=N/C(=N)N	5.64	> 100	27.9	40.9	20.5			> 100	2.33	39	9.66	5.73			3.91	7.2
